Reference: ChEMBL document CHEMBL1145357, “Antitumor anthraquinones from an endophytic actinomycete Micromonospora lupini sp. nov” (Bioorg Med Chem Lett, 2007)
Activity calls are given as the source filed them. The rule behind the calls is not given here.

What was measured:
[1] = Inhibition of invasion of mouse 26-L5 cells; format: functional
[2] = species: Mus musculus; test: Growth inhibition of mouse 26-L5 cells at 3 ug/ml by WST1 method; format: functional

For `Cc1c(O)c(CCC(C)C)c2c(c1O)C(=O)c1cccc(O)c1C2=O` [LUPINACIDIN A], the IC50 [1] was 210 nM and the Activity [2] was “Active”.
With `CCCCc1c(O)c(C)c(O)c2c1C(=O)c1c(O)cccc1C2=O` [LUPINACIDIN B] the IC50 [1] was 920 nM and the Activity [2] was “inactive”.
